Laboratory results reported in patent publication US20240277729A1, “METHODS OF TREATMENT AND PHARMACEUTICAL COMPOSITIONS USING AN SGLT-2 INHIBITOR AND A NEUROLEPTIC AGENT” (Boehringer Ingelheim International GmbH, priority 2011, published 2024).
“Also recorded” adds a separate entry of the source.

Tests used:
Female Wistar rats = settings: neuroleptic alone; olanzapine 8 mg/kg sc, clozapine 8 mg/kg sc, haloperidol 4 mg/kg ip; oral glucose load 2 g/kg; FIG. 1A
Experimental: Female Wistar rats (weight range 250-300 g upon arrival) are obtained from Janvier (Le Genest Saint Isle-France, France) and housed in pairs or three together at a temperature of 21±4° C. and 55±20% humidity. The animals are maintained on a reverse phase light-dark cycle (lights off for 8 h from 09.30-17.30 h) during which time the room is illuminated by red light. The animals are housed and have free access to a fat diet and tap water until the night before the oral glucose tolerance test (OGTT) experiment.
An oral glucose tolerance test is performed in overnight fasted animals. A pre-dose blood sample (t0-90 min) is obtained by tail bleed. Blood glucose is measured with a glucometer, and the animals are randomized for blood glucose (n=8/group). Subsequently, the groups receive a single oral administration of either vehicle or a neuroleptic agent in the presence or absence of an SGLT-2 inhibitor. The animals receive an oral glucose load (2 g/kg) 60 min after compound administration. Blood glucose is measured in tail blood 15 min, 30 min, 60 min, 120 min, and 180 min after the glucose challenge. Glucose excursion is quantified by calculating the reactive glucose AUC. The data are presented as mean±SEM.

[1] = metformin on its own, in the diabetic; cited from earlier work

Compound | glucose tolerance in OGTT (Female Wistar rats) | average improvement in the HbA1c value [1]
CN1CCN(C2=Nc3cc(Cl)ccc3Nc3ccccc32)CC1 [Clozapine, 8-chloro-11-(4-methylpiperazin-1-yl)-5H-dibenzo[b,e][1,4]diazepine] | impaired glucose tolerance | –
CN(C)C(=N)N=C(N)N [metformin] | – | 1.0-1.5%
O=C(CCCN1CCC(O)(c2ccc(Cl)cc2)CC1)c1ccc(F)cc1 [haloperidol, 4-[4-(4-chlorophenyl)-4-hydroxy-1-piperidyl]-1-(4-fluorophenyl)-butan-1-one] | impaired glucose tolerance; also recorded: worsening of the OGTT was less pronounced | –
